Laboratory results from patent publication US7935719B2, “N-substituted-azacyclylamines as histamine-3 antagonists” (Wyeth LLC, priority 2006, dated 2011).
Counter-ions that a name gives are not always drawn.

Legend:
Histamine Receptor H3 [1] = molecular target: T1, Histamine Receptor H3 (Homo sapiens, UniProt Q9Y5N1); test: Methyl histamine binding in human histamine H3 receptor cell line; parameters: expressed in transfected cells; host or cells: HEK293T; settings: membranes of stably transfected HEK293T cells, radioligand 1 nM, Ki from IC50 by Cheng-Prusoff
Experimental: Evaluation of Methyl Histamine Binding in Human Histamine H3 Receptor Cell Line
The affinity of test compounds for the histamine 3 (H3) receptor is evaluated in the following manner. […] Cells are scraped from the plate, transferred to centrifuge tubes, washed one time in PBS by centrifugation in a Sorvall RT7 Plus centrifuge (2000 rpm 10 minutes, 4° C.). The resulting pellets are stored at −80° C. until ready for use. Cells are re-suspended in buffer (50 mM Tris pH=7.5) and placed in a Dounce homogenizer, douncing ten times to homogenize cells. The homogenate is spun down by centrifugation (Sorvall RT7 Plus, 1800 rpm 10 minutes, 4° C.). The supernatant is placed in a Corex tube and spun down by centrifugation (Sorvall RC 5c Plus, 17,000 rpm 20 minutes, 4° C.). The pellet is resuspended in buffer (50 mM Tris, pH 7.5). Protein concentration (ug/ul) is determined using the Micro-BCA Protein Determination. The binding assay is set up in a 96 well microtiter plate in a total volume of 250 uL. Non-specific binding is determined in the presence of 10 uM clobenpropit. The final radioligand concentration is 1 nM. The test compound is serially diluted using the Beckman Biomek2000 to a final approximate range of 100 uM to 100 pM. Membranes are suspended in buffer, homogenized in 2 bursts of ten seconds using a Vitris mechanical homogenizer set at power setting 5. Ten μg of membranes are added to each well. Following a one hour incubation at 30° C., the reaction is terminated by the addition of ice cold buffer and rapid filtration with a Packard Filtermate Harvester through a GF/B filter pre-soaked with 1% PEI for one hour. The plate is dried for one hour at 37° C. and 60 μL Microscint Scintillant is added to each well. The CPM per well is measured on a Packard Top Count NXT. Ki values are determined in nM. […] CPM values are expressed as % specific binding and plotted vs compound concentration. A curve is fitted using a four-parameter logistic fit and the IC50 value is determined. The Ki is calculated from this using the Cheng-Prusoff equation: […]=IC50/1+(L/Kd) where L=concentration of free radioligand used in the assay, and Kd is the dissociation constant of the radioligand for the receptor. L is determined for each experiment by counting an aliquot of the diluted radioligand (corresponding to that added to each well) and the Kd has previously been determined under identical conditions for this cell line/radioligand.

Histamine Receptor H3 [2] = molecular target: T1, Histamine Receptor H3; test: Cyclic AMP assay for histamine receptor H3 antagonism activity; format: cell-based; parameters: expressed in transfected cells; settings: stable H3 cells, histamine plus 10 μM forskolin, 30 min at 30° C., HitHunter cAMP kit
Experimental: Cyclic Amp Assay for Histamine Receptor H3 Antagonism Activity.
Stable H3 cells are maintained in tissue culture flask in DMEM with high glucose, 10% FBS, 1× pen/strep, 500 ug/ml GY18, until experiment. Culture media is removed and cells are washed twice with PBS w/Ca+2 and Mg+2 plus 500 μM IBMX. Cells are then detached by tapping on the side of the flask and resuspend in the same buffer. Two thousand cells/well are incubated with 1 μM histamine plus 10 μM forskolin plus various concentrations of compounds in a total volume of 30 μL in 96 well plates for 30 min at 30° C. Final test compound concentrations range from 10^-4 M to 10-9.5 M at full log dilutions. Cyclic AMP levels are measured using HitHunter cAMP kit from Discoverx, cat#900041 according to manufacturer's instruction. Chemiluminescence signals are detected using Top Count (Packard). Cyclic AMP levels in control cells receiving 10 μM forskolin plus 100 nM histamine are considered 0%, and in cells receiving 10 uM forskolin plus 100 nM histamine plus 1 μM clobenpropit are considered 100%. Data are expressed as % control and analyzed using Prizm software. The Kb values are calculated using the following equation, KB=EC50 or IC50/[1+(ligand/Kd)].

T1 sequence (Q9Y5N1 whole entry): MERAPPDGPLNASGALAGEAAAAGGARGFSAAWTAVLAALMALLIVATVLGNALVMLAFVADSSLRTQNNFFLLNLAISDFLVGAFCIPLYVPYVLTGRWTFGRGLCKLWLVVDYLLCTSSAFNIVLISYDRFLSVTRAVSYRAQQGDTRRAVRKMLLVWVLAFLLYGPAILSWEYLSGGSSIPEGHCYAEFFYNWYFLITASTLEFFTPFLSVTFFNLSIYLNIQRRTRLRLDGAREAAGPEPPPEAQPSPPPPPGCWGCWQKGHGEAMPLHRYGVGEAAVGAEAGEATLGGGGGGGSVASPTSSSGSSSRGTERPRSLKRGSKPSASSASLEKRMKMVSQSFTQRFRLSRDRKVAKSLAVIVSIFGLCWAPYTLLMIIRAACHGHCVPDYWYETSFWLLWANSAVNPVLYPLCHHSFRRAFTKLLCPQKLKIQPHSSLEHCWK

Ki (Histamine Receptor H3 [1]) | Kb (Histamine Receptor H3 [2]) | SMILES
25.1 to 50 nM |  | N#Cc1ccc2c(c1)ncn2-c1ccc(C(=O)N2CC[C@H](N3CCCC3)C2)cc1 [Example 48, 1-{4-[(3′S)-1,3′-bipyrrolidin-1′-ylcarbonyl]phenyl}-1H-benzimidazole-5-carbonitrile fumarate]
< 10 nM | < 10 nM | N#Cc1ccc2c(ccn2-c2ccc(C(=O)N3CC[C@H](N4CCCC4)C3)cc2)c1 [Example 36, 1-{4-[(3′S)-1,3′-bipyrrolidin-1′-ylcarbonyl]phenyl}-1H-indole-5-carbonitrile]
< 10 nM |  | N#Cc1ccc2nn(-c3ccc(C(=O)N4CC[C@H](N5CCCC5)C4)cc3)cc2c1 [Example 43, 2-{4-[(3′S)-1,3′-bipyrrolidin-1′-ylcarbonyl]phenyl}-2H-indazole-5-carbonitrile]
10.1 to 25 nM |  | O=C(c1ccc(-n2ncc3ccc(F)cc32)cc1)N1CC[C@H](N2CCCC2)C1 [Example 41, (3′S)-1′-[4-(6-fluoro-1H-indazol-1-yl)benzoyl]-1,3′-bipyrrolidine]
< 10 nM |  | O=C(c1ccc(-n2ccc3cc(Br)ccc32)cc1)N1CC[C@H](N2CCCC2)C1 [Example 35, (3′S)-1′-[4-(5-bromo-1H-indol-1-yl)benzoyl]-1,3′-bipyrrolidine]
< 10 nM |  | O=C(c1ccc(-n2ccc3ccccc32)cc1)N1CC[C@H](N2CCCC2)C1 [Example 30, (3′S)-1′-[4-(1H-indol-1-yl)benzoyl]-1,3′-bipyrrolidine hydrochloride]
< 10 nM |  | N#Cc1ccc2c(cnn2-c2ccc(C(=O)N3CC[C@H](N4CCCC4)C3)cc2)c1 [Example 42, 1-{4-[(3′S)-1,3′-bipyrrolidin-1′-ylcarbonyl]phenyl}-1H-indazole-5-carbonitrile]
< 10 nM |  | Cc1cc2ccccc2n1-c1ccc(C(=O)N2CC[C@H](N3CCCC3)C2)cc1 [Example 38, (3′S)-1′-[4-(2-methyl-1H-indol-1-yl)benzoyl]-1,3′-bipyrrolidine]
< 10 nM |  | O=C(c1ccc(-n2cc3ccc(F)cc3n2)cc1)N1CC[C@H](N2CCCC2)C1 [Example 44, (3′S)-1′-[4-(6-fluoro-2H-indazol-2-yl)benzoyl]-1,3′-bipyrrolidine]
< 10 nM |  | O=C(c1ccc(-n2ncc3cc(F)ccc32)cc1)N1CC[C@H](N2CCCC2)C1 [Example 40, (3′S)-1′-[4-(5-fluoro-1H-indazol-1-yl)benzoyl]-1,3′-bipyrrolidine]
< 10 nM |  | O=C(c1ccc(-n2cc3cc(F)ccc3n2)cc1)N1CC[C@H](N2CCCC2)C1 [Example 45, (3′S)-1′-[4-(5-fluoro-2H-indazol-2-yl)benzoyl]-1,3′-bipyrrolidine]
< 10 nM |  | O=C(c1ccc(-n2ccc3cccc(Cl)c32)cc1)N1CC[C@H](N2CCCC2)C1 [Example 34, (3′S)-1′-[4-(7-chloro-1H-indol-1-yl)benzoyl]-1,3′-bipyrrolidine]
< 10 nM |  | N#Cc1ccc2c(ccn2-c2ccc(C(=O)N3CC[C@@H](N4CCCC4)C3)cc2)c1 [Example 46, 1-{4-[(3′R)-1,3′-bipyrrolidin-1′-ylcarbonyl]phenyl}-1H-indole-5-carbonitrile]

Second part, the compound before the results:

SMILES | Ki (Histamine Receptor H3 [1]) | Kb (Histamine Receptor H3 [2])
C[C@@H]1CCCN1[C@H]1CCN(C(=O)c2ccc(-n3cnc4ccccc43)cc2)C1 [Example 6, (2R,3′S)-1′-[4-(1H-benzimidazol-1-yl)benzoyl]-2-methyl-1,3′-bipyrrolidine] | 10.1 to 25 nM | 
O=C(c1ccc(-n2cnc3ccccc32)cc1)N1CC[C@H](N2CCCCCC2)C1 [Example 11, 1-(4-{[(3S)-3-azepan-1-ylpyrrolidin-1-yl]carbonyl}phenyl)-1H-benzimidazole] | < 10 nM | < 10 nM
O=C(c1ccc(-n2cnc3ccccc32)cc1)N1CCC(N2CCCC2)C1 (stereo not drawn) [Example 2, 1′-[4-1H-benzimidazol-1-yl)benzoyl]-1,3′-bipyrrolidine hydrochloride] | < 10 nM | < 10 nM
c1ccc2c(c1)ncn2-c1ccc(CN2CC[C@H](N3CCCC3)C2)cc1 [Example 14, (3′S)-1′-[4-(1H-benzimidazol-1-yl)benzyl]-1,3′-bipyrrolidine hydrochloride] | < 10 nM | 
CN1CCN([C@H]2CCN(C(=O)c3ccc(-n4cnc5ccccc54)cc3)C2)CC1 [Example 10, 1-(4-{[(3S)-3-(4-methylpiperazin-1-yl)pyrrolidin-1-yl]carbonyl}phenyl)-1H-benzimidazole] | > 100 nM | 
Cc1nc2ccccc2n1-c1ccc(C(=O)N2CC[C@H](N3CCC(C)CC3)C2)cc1 [Example 25, 2-methyl-1-(4-{[(3S)-3-(4-methylpiperidin-1-yl)pyrrolidin-1-yl]carbonyl}phenyl)-1H-benzimidazole] | 25.1 to 50 nM | 
Cc1nc2ccccc2n1-c1ccc(C(=O)N2CC[C@H](N3CCN(C)CC3)C2)cc1 [Example 26, 2-methyl-1-(4-{[(3S)-3-(4-methylpiperazin-1-yl)pyrrolidin-1-yl]carbonyl}phenyl)-1H-benzimidazole] | > 100 nM | 
c1ccc2c(c1)ncn2-c1ccc(CN2CC[C@H](N3CCCCC3)C2)cc1 [Example 15, (1-(4-{[(3S)-3-piperidin-1-ylpyrrolidin-1-yl]methyl}phenyl)-1H-benzimidazolefumaric acid salt] | < 10 nM | 
Cc1nc2ccccc2n1-c1ccc(CN2CC[C@H](N3CCCC3)C2)cc1 [Example 17, (3′S)-1′-[4-(2-methyl-1H-benzimidazol-1-yl)benzyl]-1,3′-bipyrrolidine] | < 10 nM | 
Cc1nc2ccccc2n1-c1ccc(C(=O)N2CC[C@H](N3CCCCC3C)C2)cc1 (stereo partly drawn) [Example 23, 2-methyl-1-(4-{[(3S)-3-(2-methylpiperidin-1-yl)pyrrolidin-1-yl]carbonyl}phenyl)-1H-benzimidazole] | < 10 nM | 
O=C(c1ccc(-n2ccc3c(Cl)cccc32)cc1)N1CC[C@H](N2CCCC2)C1 [Example 32, (3′S)-1′-[4-(4-chloro-1H-indol-1-yl)benzoyl]-1,3′-bipyrrolidine] | < 10 nM | 
O=C(c1ccc(-n2cnc3ccccc32)cc1)N1CC[C@H](N2CCCCC2)C1 [Example 13, 1-(4-{[(3S)-3-piperidin-1-ylpyrrolidin-1-yl]carbonyl}phenyl)-1H-benzimidazole] | < 10 nM | 
CC1CCCCN1[C@H]1CCN(C(=O)c2ccc(-n3cnc4ccccc43)cc2)C1 (stereo partly drawn) [Example 12, 1-(4-{[(3S)-3-(2-methylpiperidin-1-yl)pyrrolidin-1-yl]carbonyl}phenyl)-1H-benzimidazole] | 25.1 to 50 nM | 
Cc1nc2ccccc2n1-c1ccc(CN2CC[C@H](N3CCCCCC3)C2)cc1 [Example 18, 1-(4-{[(3S)-3-azepan-1-ylpyrrolidin-1-yl]methyl}phenyl)-2-methyl-1H-benzimidazole] | < 10 nM | 
Cc1nc2ccccc2n1-c1ccc(C(=O)N2CC[C@H](N3CCCCCC3)C2)cc1 [Example 20, 1-(4-{[(3S)-3-azepan-1-ylpyrrolidin-1-yl]carbonyl}phenyl)-2-methyl-1H-benzimidazole fumaric acid salt] | < 10 nM | 
CC1CCCN([C@H]2CCN(C(=O)c3ccc(-n4cnc5ccccc54)cc3)C2)C1 (stereo partly drawn) [Example 8, 1-(4-{[(3S)-3-(3-methylpiperidin-1-yl)pyrrolidin-1-yl]carbonyl}phenyl)-1H-benzimidazole] | < 10 nM | 
CC1CCN([C@H]2CCN(C(=O)c3ccc(-n4cnc5ccccc54)cc3)C2)CC1 [Example 9, 1-(4-{[(3S)-3-(4-methylpiperidin-1-yl)pyrrolidin-1-yl]carbonyl}phenyl)-1H-benzimidazole] | > 100 nM | 
